Data: patent US10874740B2, “5-ALA derivatives and use thereof” (UNIVERSITE DE GENEVE, priority 2015, dated 2020)
Counter-ions that a name gives are not always drawn.

How the values were obtained:
A549 cell line = test: Porphyrin accumulation (PpIX fluorescence) in A549 cells; format: cell-based, human; conditions: tested 0.1 to 3.3 mM
Description: (§1) Human bladder carcinoma cell line T24 (ATTC® HTB-4™), human lung adenocarcinoma cell line A549 (ATTC® CCL-185™), human prostate cancer cell line PC-3 (ATTC® CRL-1435™), and human glioblastoma cell line U-87Mg (ATTC® HTB-14™) were grown as monolayers and maintained in DMEM^+GlutaMAX™-I medium, F12K nutrient mix, and MEM, respectively. Culture media were supplemented with 10% fetal calf serum (FCS) and […] streptomycin and 100 IU/ml penicillin. Cells were cultivated at 37° C. in humidified 95% air and 5% CO2 atmosphere and routinely maintained by serial passage in a new medium every 2-5 days, depending on the cell type.
(§2) Cell viability was measured using an MTT assay. T24 (5000 cells/well), PC3 (12000 cells/well), A549 (10000 cells/well) and U87Mg (10000 cells/well) were seeded in a 96-well plate and grown 12 to 18 hours. Then, the medium was replaced with medium containing increasing concentrations of different compounds of the invention (from 0.1 to 3.3 mM) and PPIX fluorescence was recorded with a plate reader (Safire, Tecan, Switzerland) at different time points (1, 2, 4, 6, 8 and 24 h). Excitation wavelength was set at 405 nm and emission wavelength at 630 nm. […] After background subtraction, porphyrin accumulation was calculated according to the fluorescence intensity at 635 nm.

U87-MG cell line = test: Porphyrin accumulation (PpIX fluorescence) in U87-MG cells; format: cell-based, human; conditions: tested 0.1 to 3.3 mM
Description: as §1, §2

chick embryos = test: In vivo chicken acute toxicity (chick embryo, intravenous)
Description: (§3) 5-ALA-Hex is known for its pronounced acute toxicity after intravenous injection and the LD50 of the compounds of the invention was determined by escalating doses of compounds dissolved in milliQ™ water and pH adjusted to 7.4 administered to embryos via intravenous injection. The viability of chick embryos has been evaluated after 24 h after injection. […] This higher LD50 value is believed to be a consequence of the rapid conversion into 5-ALA-Hex. Therefore, the very high doses of Compound 1 that were tolerated by chick embryos (LD50 of 500 μmol/kg) are consistent since this compound is much more slowly converted into 5-ALA-Hex (and 5-ALA) in all tissues expressing alkaline phosphatase.

[1] = as above; conditions: chicken (chick embryo), in vivo; chick embryos, intravenous injection, viability 24 h after injection
Description: as §3

PC3 cell line = test: Porphyrin accumulation (PpIX fluorescence) in PC3 cells; format: cell-based, human; conditions: for porphyrin synthesis capability (fluorescence kinetics) compared to ALA-hex: 1 mM; for concentration for optimal (highest) porphyrin formation: tested 0.1 to 3.3 mM
Description: as §1
Cell viability was measured using an MTT assay. T24 (5000 cells/well), PC3 (12000 cells/well), A549 (10000 cells/well) and U87Mg (10000 cells/well) were seeded in a 96-well plate and grown 12 to 18 hours. Then, the medium was replaced with medium containing increasing concentrations of different compounds of the invention (from 0.1 to 3.3 mM) and PPIX fluorescence was recorded with a plate reader (Safire, Tecan, Switzerland) at different time points (1, 2, 4, 6, 8 and 24 h). Excitation wavelength was set at 405 nm and emission wavelength at 630 nm. After 24 hours of incubation with different products, the cells were washed twice with DPBS and fresh medium was put into each well. They were then either irradiated with a light dose of 10 J/cm^2 or kept in the dark. After background subtraction, porphyrin accumulation was calculated according to the fluorescence intensity at 635 nm.

T24 cell line = test: Porphyrin accumulation (PpIX fluorescence) in T24 cells; format: cell-based, human; conditions: tested 0.1 to 3.3 mM
Description: as §1, §2

CAM U87Mg spheroid tumor = test: In vivo CAM U87Mg spheroid tumor model, fluorescence imaging; design: species or system chick; conditions: Compound 7 100 μmol/kg; for tumor fluorescence signal / contrast: intravenous, Compound 1 300 μmol/kg, PpIX 100 μmol/kg, imaging 0, 30, 60, 120 min
Description: Compounds of the invention were tested in vivo in using the chorioallantoic membrane (CAM) model U87-Mg tumor spheroids were obtained using a modified procedure (De Magalhaes et al., 2010, 20-26) using 2.5×10^4 cells/mL. Spheroids grew 4 days before inoculation into the CAM. On embryonic development day (EDD) 7, the hole in the eggshell was enlarged to allow access to the CAM vasculature, using a needle (25 Gauge) a hole was drilled in the CAM. A binocular lens Leica M80 (Wetzlar, Germany) was used to perform the inoculation. Once the hole was pierced in the CAM, the spheroid (approximately of 200 μm) was placed in the cavity beneath the hole. Cell medium (20 μL) was placed on the spheroid to allow the tumor to attach to the CAM membrane and develop. Then, the eggs were sealed with parafilm and returned to the incubator to let spheroids grow until EDD13. Compounds were injected intravenously into the CAM vasculature (10-40 μL), preferentially into a large blood vessels using a needle (gauge 33, 51 mm, tap N type) attached to a 100 μL syringe (Hamilton, Reno, Nev.). Fluorescence imaging of tumor nodules was done with 12-bit monochrome CDD camera (Retiga EX Q-Imaging Canada) connected to fluorescence Eclipse E600 FN microscope with a CFI achromat objective characterized by magnification 4×, numerical aperture of 0.10 and a working distance of 30 mm (Nikon, Tokyo, Japan). A conical holder was used to place the eggs during experimentation under the objective of fluorescence microscope. A mercury arc lamp HBO 103/W/2 (MS Scientific Berlin, Germany) was used to provide illumination. For the detection of PpIX a BV-2A cube (Nikon, Tokyo, Japan) with an excitation filter: 400-440 nm, a dichroic mirror (455 nm) and an emission filter (470 nm) was used. A hollow slider filter 650/50 nm was added. Band pass filter 560/40 was used to image the autofluorescence of tumors. All pictures were taken with a 90 ms exposure and gain set at 50. […] Data was analysed using multiple t-tests and statistical significance determined at each time point.

[2] = Chemical stability in buffer at three pH values (UPLC); format: physicochemical; conditions: 5 mM, 37° C., 20 mM buffers pH 4.00, 7.40, 8.90
Description: Chemical stability was investigated for compounds of the invention as compared to the known ester ALA-Hex as follows: Chemical stability was assayed at three different pH value by dissolving the compound of interest (or ALA-Hex control) in an appropriate buffer (pH=4.00 acetate buffer; pH=7.40 phosphate buffer; and pH 8.90 borate buffer). The buffer concentration was 20 mM. The solution was kept at 37° C. and assayed at different time points. Quantification of the starting material and degradation products was performed by UPLC using the Thermo Scientific Accela UPLC-MS system. The column used was Macherey-Nagel Nucleodur C18 Gravity 50/2 1.8 μm. 10 μL aliquots were injected and eluted using 10% acetonitrile and 90% ammonium formate buffer (10 mM) isocratic elution. The column was kept at 40° C. and the flow rate was 0.4 mL/min. The quantification was performed by integrating AUCs of the chromatograms of the peaks of interest at 220 nm.

[3] = Nanoassembly formation and size by Dynamic Light scattering (DLS); format: physicochemical; conditions: for formation of nanoassemblies in aqueous solution: ethanol solution added dropwise to MiliQ water; for average diameter of particles (DLS): nanomicelles 1 mg/mL in water
Description: 1 mg of compound 4 or compound 6 was dissolved in ethanol (300 μL). This solution was slowly added dropwise using a microsyringe to MiliQ water (1.2 mL) under magnetic stirring (500 RPM). […] The organic solvent was evaporated under reduced pressure (100 mbar) at 40° C. yielding the final solution of nanomicelles of 1 mg/mL which were analysed by Dynamic Light scattering (DLS) using Zetasizer Nano ZS machine (Malvern) and stored at ambient temperature. Dynamic Light scattering (DLS) results are presented under FIG. 4 for compound 4 (A) and for compound 6 (B) and show a high homogeneity in size of the particule population with an average diameter of about 73 nm for compound 4 and 98.5 nm for compound 6.

[4] = system: alkaline phosphatase from calf intestine; test: In vitro enzymatic activation by alkaline phosphatase (UPLC); format: biochemical; conditions: borate buffer pH 8.90, 0.5 mM magnesium chloride, 1 U to 100 U alkaline phosphatase, 37° C.
Description: The ability of compounds of the invention to release ALA in presence of a phosphatase was investigated as follows: In vitro activation of compounds of interest by alkaline phosphatase was assayed by dissolving the compound of the invention (or ALA-Hex control) in 20 mM borate buffer at pH 8.90 containing 0.5 mM magnesium chloride and 1 U to 100 U of alkaline phosphatase from calf intestine (Applichem). The solution was kept at 37° C. and assayed at different time points. Quantification of the starting material and degradation products was performed by UPLC using the Thermo Scientific Accela UPLC-MS system. The column used was Macherey-Nagel Nucleodur C18 Gravity 50/2 1.8 μm. […] aliquots were injected and eluted using appropriate acetonitrile and ammonium formate buffer (10 mM) ratio with isocratic elution according to the compound of invention. The quantification was performed by integrating AUCs of the chromatograms of the peaks of interest at 220 nm.

formation of nanoassemblies in aqueous solution [3] | average diameter of particles (DLS) [3] | Structure (SMILES) | concentration for optimal (highest) porphyrin formation (A549 cell line) | concentration for optimal (highest) porphyrin formation (U87-MG cell line) | increase in LD50 compared to 5-ALA-Hex (chick embryos) | LD50 at 24 h [1] | porphyrin synthesis capability (fluorescence kinetics) compared to ALA-hex (PC3 cell line) | concentration for optimal (highest) porphyrin formation (PC3 cell line) | concentration for optimal (highest) porphyrin formation (T24 cell line) | tumor fluorescence signal / contrast (CAM U87Mg spheroid tumor) | chemical stability (% of compound remaining in solution versus time) as compared to ALA-Hex [2] | LD50 (chick embryos; intravenous injection, viability 24 h after injection) | release of ALA upon activation of a phosphatase [4] | time post injection at which fluorescence started to outline the tumors (CAM U87Mg spheroid tumor; intravenous into CAM vasculature)
– | – | CCCCCCOC(=O)CCC(=O)CNP(=O)(O)Oc1ccccc1 [Compound 1, Triethylammonium salt of hexyl 5-((hydroxy(phenoxy)phosphoryl)amino)-4-oxopentanoate] | 3.3 mM | 1.0 mM | 7 fold | 500 µmol/kg | comparable porphyrin synthesis capability | 3.3 mM | 3.3 mM | delayed onset of the fluorescence signal but a robust contrast | increased chemical stability | – | – | –
Nanoassemblies formed spontaneously | about 73 nm | CCCCCCOC(=O)CCC(=O)CNP(=O)(O)OCCC/C(C)=C/CC/C(C)=C/CC/C=C(\C)CC/C=C(\C)CCC=C(C)C [Compound 4, Hexyl 5-((hydroxy(((4E,8E,12E,16E)-4,8,13,17,21-pentamethyldocosa-4,8,12,16,20-pentaen-1-yl)oxy)phosphoryl)amino)-4-oxopentanoate] | – | – | – | – | – | – | – | – | – | – | – | –
– | – | CCCCCCOC(=O)CCC(=O)CN [Compound 5-ALA-Hex, 5-ALA-hexyl ester, reference compound] | – | – | – | – | – | – | – | – | – | 75 µmol/kg | – | –
Nanoassemblies formed spontaneously | ~98.5 nm | CCCCCCOC(=O)CCC(=O)CNP(=O)(NCC(=O)CCC(=O)OCCCCCC)OCCC/C(C)=C/CC/C(C)=C/CC/C=C(\C)CC/C=C(\C)CCC=C(C)C [Compound 6, Bis-hexyl 5-((hydroxy(((4E,8E,12E,16E)-4,8,13,17,21-pentamethyldocosa-4,8,12,16,20-pentaen-1-yl)oxy)phosphoryl)bis-amino)-4-oxopentanoate] | – | – | – | – | – | – | – | – | – | – | – | –
– | – | CCCCCCOC(=O)CCC(=O)CNC(=O)OCOP(=O)(O)O [Compound 7, hexyl 4-oxo-5-((((phosphonooxy)methoxy)carbonyl)amino)pentanoate] | 0.33 mM | 0.1 mM | several fold | 200 µmol/kg | comparable porphyrin synthesis capability | 0.33 mM | 0.1 mM | excellent and statistically significant signal to background at 1 h and also at 2 h | increased chemical stability | – | slower than the one from compound 1 | 30 min
